These compounds were tested on NLRP3 inflammasome-induced IL-1β release from murine peritoneal macrophages (pMΦ) (assay: IL-1β release from primary resident peritoneal macrophages (ELISA)). Details: LPS + 3% DSS, z-YVAD-fmk 10 μM, K+ 130 mM, bafilomycin A1 10 nM, NAC 20 mM.
Assay type: cell-based, mice
Experimental: Primary resident peritoneal macrophages (pMΦ) of WT or Nlrp3−/− mice were generated as described elsewhere (Bauer et al. 2010). Briefly, mice were sacrificed under isoflurane anesthesia by cervical dislocation. Peritoneal lavage was then performed by exposing the parietal peritoneum and injecting intraperitoneally with a transpipette 10 ml of 2% FBS in PBS. The peritoneal lavage fluid was centrifuged and re-suspended at the desired concentration. The adherent pMΦ (F 4/80 positive cells) subset consists about 20% of the peritoneal lavage as observed by flow cytometer analysis. Cells were then plated into culture dishes overnight. Cells were washed, and adherent cells were used for cytokine assays. Where indicated, experiments were performed after four weeks of co-housing WT and NLRP3-deficient mice to neutralize the microbiota effect.
pMΦ were seeded into 96-well plates at a density of 2×10^5 cells per well. After LPS priming for 1 h, cells were stimulated with different activators for 24 h. Cell culture supernatant was used for ELISA (Biolegend, San Diego Calif., USA), which was performed according to the manufacturer's protocol.
In order to examine the effect of the apoptotic cell composition on inflammasome-induced IL-1β release, isolated macrophages were exposed to lipopolysaccharide (LPS) and DSS with or without earlier interaction with apoptotic cells for two hours.
Given the need for TLR triggering through NF-κB signaling, and the fact that apoptotic cells can inhibit NF-κB, and therefore inhibit […] secretion in the absence of inflammasome inhibition, a set of experiments was initiated to elucidate whether IL-1β secretion is inhibited both at NF-κB and NLRP3 levels by apoptotic cells. Resident peritoneal macrophages (pMΦ) were either incubated with apoptotic cells, washed, and primed with LPS following stimulation with various inflammasome inducers, or were first primed with LPS, allowing accumulation of de novo […] transcription and then treated with apoptotic cells and inducers.
In the case of `[Cl-].[K+]` [KCl], the “DSS-mediated IL-1β release” value is reported as “inhibited”.
For `CC(=O)N[C@@H](CS)C(=O)O` [N-acetyl-L-cysteine], the “DSS-mediated IL-1β release” value was “significantly inhibited”.
In the case of `CO/C1=C\C(C)=C\[C@@H](C)[C@@H](O)[C@@H](C)C/C(C)=C/C=C/[C@H](OC)[C@@H]([C@@H](C)[C@@H](O)[C@H](C)[C@@]2(O)C[C@@H](O)[C@H](C)[C@@H](C(C)C)O2)OC1=O` [bafilomycin, bafilomycin A1], the “DSS-mediated IL-1β release” value is reported as “inhibited”.
In the case of z-YVAD-fmk, the “DSS-mediated IL-1β release” value is reported as “almost complete inhibition”.

Source: patent US10927343B2, “Therapeutic apoptotic cell preparations, method for producing same and uses thereof” (ENLIVEX THERAPEUTICS LTD, priority 2012, dated 2021)
